Results on one compound are retold here after patent US6835867B1, “Allelic series of genomic modifications in cells” (priority 1998, dated 2004).

Several values for one entry are separate records, joined by “and”; a condition that tells them apart may be missing. Equal entries are not always repeated. Entries after “also recorded” stand apart in the source; their conditions may differ.

Assay [1] has as its system hypoxanthine guanine phosphoribosyltransferase (Hprt) gene in mouse embryonic stem (ES) cells. The assay can be described thus: ENU-induced Hprt-inactivating mutations, 6-TG selection, Protocol 2 (24-well plates). The assay is classed as cell-based. The method, then: In the second protocol, actively growing ES cells were trypsinized and plated at two densities (1×10^5 and 0.5×10^5 cells/well) in 24-well tissue culture plates instead of T25 flasks. After a one-day preincubation period, cells were treated for 5 hours with 0.3 mg/ml or 0.4 mg/ml ENU (as described above) and subsequently treated as described in Table 2. [table]

The conditions of assay [2]: literature statement; cited from earlier work.
For assay [3], the system named is hypoxanthine guanine phosphoribosyltransferase (Hprt) gene in mouse embryonic stem (ES) cells. Briefly: ENU-induced Hprt-inactivating mutations, 6-TG selection, Protocol 1. The format is cell-based. The note with it: 0.3 mg/ml ENU.
The test system of assay [4] is Mouse ES cells (129/Sv+Tyr, +p). Briefly: Survival of ES cells after 5 hour ENU treatment (colony counting). The format is cell-based. The conditions noted are these: for survival: 5 hours, counted after 3 days of culture. Here is the method:
Mouse ES cells (129/Sv+^Tyr, +^p) were used. Cells were grown in culture medium [MEM (Gibco) supplemented with 15% heat-inactivated fetal calf serum, LIF, and 10 μM β-mercaptoethanol. Cells were routinely grown on 100-mm petri dishes and cultivated at 37° C. in a humidified atmosphere of 5% CO2 in air. For subculturing, cells were disassociated with HBSS containing 0.25% trypsin and 0.02% EDTA. After a 3-minute incubation at room temperature, cells were resuspended in culture medium and cell numbers determined using a hemocytometer.
The plating efficiency was determined by plating 2×10^3 cells per 100-mm dish, fixing the cells after 6-days with methanol, staining with 0.01% crystal violet and scoring colonies. Colonies were scored for the calculation of plating efficiency as percent of the inoculated cell number. The plating efficiencies were approximately 20%.
In the first protocol, actively growing ES cells were trypsinized and plated at 5×10^5 cells per T25 flask and after 1 day preincubation treated for 5 hours with 0.3 mg/ml, 0.4 mg/ml or 0.5 mg/ml ENU (dissolved in medium without FCS by vigorous shaking and filter sterilization with 0.2 μm cellulose acetate filters immediately before use). Control cells and cells which had been treated with ENU were washed three times with PBS and the number of surviving cells determined after 3 days of culture in culture medium by plating 2,000 cells from control and from ENU-treated flasks and counting surviving colonies as described above. […] Surviving EA cells which had been treated with 0.3 mg/ml ENU were subcultured at 3:1 onto 60-mm petri dishes in the presence (set 1) and absence (set 2) of primary embryothic fibroblasts (PMEFs). ES cells grown on PMEFs (set 1) were cultured for 3 days, subcultured at 3:1 onto 60-mm petri dishes without PMEFs, trypsinized, plated at 4×10^5 cells per 100-mm plate without PMEFs and grown for 2 days. ES cells grown in the absence of PMEFs (set 2) were trypsinized-after 5 days in culture and plated at 4×10^5 cells per 100-mm plate without PMEFs. Cells (set 1 and set 2) were subsequently grown for 1 day prior to the addition of 10 μM 6-TG to the culture medium and further incubated for an additional 6 days in the presence of 6-TG. The number of 6-TG resistant colonies was calculated, and individual colonies were separately plated in a 96-well microtiter dish.
In the second protocol, actively growing ES cells were trypsinized and plated at two densities (1×10^5 and 0.5×10^5 cells/well) in 24-well tissue culture plates instead of T25 flasks. After a one-day preincubation period, cells were treated for 5 hours with 0.3 mg/ml or 0.4 mg/ml ENU (as described above) and subsequently treated as described in Table 2.

As for `CCN(N=O)C(N)=O` [ENU, N-ethyl-N-nitrosurea], the Total colonies result in assay [1] (0.3 mg/ml ENU, Plate 1) is reported as “Total: 23 colonies”; in assay [1] (0.3 mg/ml ENU, Plate 2) it was “Total: 12 colonies”; in assay [1] (0.4 mg/ml ENU, Plate 4), “Total: 22 colonies”. For the same compound, the No. colonies/plate result in assay [1] (0.3 mg/ml ENU, Plate 1, day 16, individual 60-mm dishes) is on record as “Plate 2: 3 colonies; also recorded: Plate 3: 5 colonies; also recorded: Plate 5: 1 colony colonies; also recorded: Plate 6: 1 colony colonies; also recorded: Plate 7: 2 colonies; also recorded: Plate 8: 2 colonies; also recorded: Plate 9: 4 colonies”; in assay [1] (0.3 mg/ml ENU, Plate 2, day 16, individual 60-mm dishes) it was “Plate 2: 1 colony colonies; also recorded: Plate 3: 2 colonies; also recorded: Plate 4: 1 colony colonies; also recorded: Plate 5: 4 colonies; also recorded: Plate 6: 2 colonies”; in assay [1] (0.4 mg/ml ENU, Plate 4, day 17, individual 60-mm dishes), “Plate 1: 14 colonies; also recorded: Plate 2: 18 colonies”. The “plates that yielded colonies after 6-thioguanine” value in assay [1] (0.3 mg/ml ENU, Plate 1, day 16, of 24 dishes) was 9 plates yielded colonies,; in assay [1] (0.3 mg/ml ENU, Plate 2, day 16, of 24 dishes), 6 plates yielded colonies,; in assay [1] (0.4 mg/ml ENU, Plate 4, day 17, of 24 dishes), 2 plates yielded colonies, 22. In addition, the Mutation frequency maximum in assay [1] (0.4 mg/ml ENU, Plate 4) is 1/800. Also, in assay [2], the “efficiency in generating mutations relative to other agents” value is “at least 10 fold”. For the same compound, in assay [3] (10 μM 6-TG, sum of 6 plates), the “Total colonies (+PMEF plates)” value is recorded as 21. Also, the “Total colonies (−PMEF plates)” value in assay [3] (10 μM 6-TG, sum of 6 plates) is listed as 77. Moreover, the “Mutation Frequency Maximum (−PMEF plates)” value in assay [3] (Hprt locus) is 1/623. The “No. Surviving Colonies (−PMEF plates), 6-TG selection (Hprt deficient), per plate” value in assay [3] (set 2 grown without PMEFs, 10 μM 6-TG, plates 1-6) is 14 and 15 and 12 and 9. For the same compound, the survival in assay [4] (0.3 mg/ml ENU) is listed as 10%; in assay [4] (0.4 mg/ml ENU) it was “less than 5%”; in assay [4] (0.5 mg/ml ENU), 0%. The colonies surviving result in assay [4] (0.4 mg/ml ENU, Plate 3, 5 days after plating, plate discarded) is “Discarded, very few”.
